# Target: T1, ASIC1a (acid-sensing ion channel 1a) (Rattus norvegicus, UniProt P55926)
# T1 construct: gene Asic1; rat ASIC1a isoform expressed in Xenopus laevis oocytes
# T1 sequence (P55926 1-526): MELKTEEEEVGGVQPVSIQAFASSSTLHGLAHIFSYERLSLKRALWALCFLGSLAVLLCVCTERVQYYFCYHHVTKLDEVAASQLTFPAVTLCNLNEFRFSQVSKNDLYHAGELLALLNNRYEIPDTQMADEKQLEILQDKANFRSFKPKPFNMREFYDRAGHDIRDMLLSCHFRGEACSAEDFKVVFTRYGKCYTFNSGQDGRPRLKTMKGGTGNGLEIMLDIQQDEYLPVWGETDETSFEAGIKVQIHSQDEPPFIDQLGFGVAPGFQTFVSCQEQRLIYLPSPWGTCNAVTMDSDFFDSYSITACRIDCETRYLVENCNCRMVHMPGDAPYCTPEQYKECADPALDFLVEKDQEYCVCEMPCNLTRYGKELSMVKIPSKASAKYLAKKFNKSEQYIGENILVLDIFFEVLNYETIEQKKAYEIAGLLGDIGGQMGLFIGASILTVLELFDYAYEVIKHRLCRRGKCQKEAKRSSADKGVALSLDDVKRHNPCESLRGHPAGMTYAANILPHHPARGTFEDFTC
# Assay: two-electrode voltage clamp in Xenopus oocytes; second peak of the pH […].5-evoked current at conditioning pH […]
# Assay type: cell-based
structure (smiles),measurement,value
"COc1cc2c(cc1O)[C@@H](Cc1ccc(O)c(Oc3ccc(C[C@@H]4c5cc(OC)c(OC)cc5CCN4C)cc3)c1)N(C)CC2 [DAU, daurisoline]",EC50,23 ± 3 µM

# Source: paper PMC6722837, “Multiple Modulation of Acid-Sensing Ion Channel 1a by the Alkaloid Daurisoline” (Biomolecules, 2019)
